Patent US9828360B2 (Array BioPharma Inc., priority 2012, dated 2017)

How the values were obtained:
Assay in all cases: KinaseProfiler off-target kinase profiling
Assay type in all cases: biochemical
Details in all cases: 10 μM, ATP near Km
AURKA = target: T1, AURKA (Homo sapiens, UniProt O14965)
T1 construct: purchased Millipore, Inc. (KinaseProfiler service)
Description: (§1) A representative compound of the invention (Example 48) was tested for off-target kinase activity at a concentration of 10 μM by Millipore, Inc. in their KinaseProfiler™ service against all the kinases available in their full kinase panel. The compound was run in duplicate at a concentration of ATP near the Km for each individual kinase according to Millipore's specifications. The results are shown in Table B. Data are reported as percent of control (POC) and are the average of the two replicates.

BLK_m = target: T2, BLK_m (Mus musculus, UniProt P16277)
T2 construct: purchased Millipore, Inc. (KinaseProfiler service)
T2 sequence (P16277 whole entry): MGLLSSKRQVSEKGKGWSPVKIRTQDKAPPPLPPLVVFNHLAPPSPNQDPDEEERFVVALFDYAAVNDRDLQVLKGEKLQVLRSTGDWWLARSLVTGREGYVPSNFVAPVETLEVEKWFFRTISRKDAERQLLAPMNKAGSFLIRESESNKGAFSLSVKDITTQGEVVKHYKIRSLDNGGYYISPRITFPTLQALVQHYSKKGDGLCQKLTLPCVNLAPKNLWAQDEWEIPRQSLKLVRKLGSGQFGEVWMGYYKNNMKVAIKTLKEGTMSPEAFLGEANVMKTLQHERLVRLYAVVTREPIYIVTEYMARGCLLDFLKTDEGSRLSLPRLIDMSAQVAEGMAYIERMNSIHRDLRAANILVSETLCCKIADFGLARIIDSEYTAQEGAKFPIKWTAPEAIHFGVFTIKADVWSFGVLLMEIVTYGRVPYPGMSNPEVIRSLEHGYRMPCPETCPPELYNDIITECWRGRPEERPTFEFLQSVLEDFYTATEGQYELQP
Description: as §1

BrSK1 = target: T3, BrSK1 (Homo sapiens, UniProt Q8TDC3)
T3 construct: purchased Millipore, Inc. (KinaseProfiler service)
Description: as §1

CDK9/cyclinT1 = target: T4, CDK9/cyclinT1 (Homo sapiens, UniProt P50750)
T4 construct: purchased Millipore, Inc. (KinaseProfiler service)
Description: as §1

CK1_y = tested on: CK1_y
Description: as §1

CK1delta = target: T5, CK1delta (Homo sapiens, UniProt P48730)
T5 construct: purchased Millipore, Inc. (KinaseProfiler service)
Description: as §1

CK1gamma2 = target: T6, CK1gamma2 (Homo sapiens, UniProt P78368)
T6 construct: purchased Millipore, Inc. (KinaseProfiler service)
Description: as §1

CK2alpha2 = target: T7, CK2alpha2 (Homo sapiens, UniProt P19784)
T7 construct: purchased Millipore, Inc. (KinaseProfiler service)
Description: as §1

CLK2 = target: T8, CLK2 (Homo sapiens, UniProt P49760)
T8 construct: purchased Millipore, Inc. (KinaseProfiler service)
Description: as §1

DAPK1 = target: T9, DAPK1 (Homo sapiens, UniProt P53355)
T9 construct: purchased Millipore, Inc. (KinaseProfiler service)
Description: as §1

DDR2 = target: T10, DDR2 (Homo sapiens, UniProt Q16832)
T10 construct: purchased Millipore, Inc. (KinaseProfiler service)
Description: as §1

ERK2 = target: T11, ERK2 (Homo sapiens, UniProt P28482)
T11 construct: purchased Millipore, Inc. (KinaseProfiler service)
Description: as §1

EphA1 = target: T12, EphA1 (Homo sapiens, UniProt P21709)
T12 construct: purchased Millipore, Inc. (KinaseProfiler service)
Description: as §1

EphA5 = target: T13, EphA5 (Homo sapiens, UniProt P54756)
T13 construct: purchased Millipore, Inc. (KinaseProfiler service)
Description: as §1

FGFR4 = target: T14, FGFR4 (Homo sapiens, UniProt P22455)
T14 construct: purchased Millipore, Inc. (KinaseProfiler service)
Description: as §1

Fer = target: T15, Fer (Homo sapiens, UniProt P16591)
T15 construct: purchased Millipore, Inc. (KinaseProfiler service)
Description: as §1

GRK6 = target: T16, GRK6 (Homo sapiens, UniProt P43250)
T16 construct: purchased Millipore, Inc. (KinaseProfiler service)
T16 sequence (P43250 whole entry): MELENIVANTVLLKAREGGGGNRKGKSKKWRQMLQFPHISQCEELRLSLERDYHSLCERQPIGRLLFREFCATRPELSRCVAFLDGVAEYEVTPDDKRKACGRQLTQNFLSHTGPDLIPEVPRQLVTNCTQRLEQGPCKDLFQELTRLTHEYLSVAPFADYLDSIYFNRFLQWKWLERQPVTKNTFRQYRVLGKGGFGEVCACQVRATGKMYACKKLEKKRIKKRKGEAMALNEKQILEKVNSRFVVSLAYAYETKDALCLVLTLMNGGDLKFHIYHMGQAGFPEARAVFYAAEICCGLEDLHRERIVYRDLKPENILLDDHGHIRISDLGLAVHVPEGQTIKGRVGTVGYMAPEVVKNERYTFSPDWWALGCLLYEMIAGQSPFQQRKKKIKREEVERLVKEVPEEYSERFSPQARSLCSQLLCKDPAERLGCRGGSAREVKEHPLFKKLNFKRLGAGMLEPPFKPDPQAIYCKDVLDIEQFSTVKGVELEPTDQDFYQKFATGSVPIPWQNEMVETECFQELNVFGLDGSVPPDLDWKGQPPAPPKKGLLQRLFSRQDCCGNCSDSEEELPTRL
Description: as §1

GSK3alpha = target: T17, GSK3alpha (Homo sapiens, UniProt P49840)
T17 construct: purchased Millipore, Inc. (KinaseProfiler service)
Description: as §1

HIPK1 = target: T18, HIPK1 (Homo sapiens, UniProt Q86Z02)
T18 construct: purchased Millipore, Inc. (KinaseProfiler service)
T18 sequence (Q86Z02 whole entry): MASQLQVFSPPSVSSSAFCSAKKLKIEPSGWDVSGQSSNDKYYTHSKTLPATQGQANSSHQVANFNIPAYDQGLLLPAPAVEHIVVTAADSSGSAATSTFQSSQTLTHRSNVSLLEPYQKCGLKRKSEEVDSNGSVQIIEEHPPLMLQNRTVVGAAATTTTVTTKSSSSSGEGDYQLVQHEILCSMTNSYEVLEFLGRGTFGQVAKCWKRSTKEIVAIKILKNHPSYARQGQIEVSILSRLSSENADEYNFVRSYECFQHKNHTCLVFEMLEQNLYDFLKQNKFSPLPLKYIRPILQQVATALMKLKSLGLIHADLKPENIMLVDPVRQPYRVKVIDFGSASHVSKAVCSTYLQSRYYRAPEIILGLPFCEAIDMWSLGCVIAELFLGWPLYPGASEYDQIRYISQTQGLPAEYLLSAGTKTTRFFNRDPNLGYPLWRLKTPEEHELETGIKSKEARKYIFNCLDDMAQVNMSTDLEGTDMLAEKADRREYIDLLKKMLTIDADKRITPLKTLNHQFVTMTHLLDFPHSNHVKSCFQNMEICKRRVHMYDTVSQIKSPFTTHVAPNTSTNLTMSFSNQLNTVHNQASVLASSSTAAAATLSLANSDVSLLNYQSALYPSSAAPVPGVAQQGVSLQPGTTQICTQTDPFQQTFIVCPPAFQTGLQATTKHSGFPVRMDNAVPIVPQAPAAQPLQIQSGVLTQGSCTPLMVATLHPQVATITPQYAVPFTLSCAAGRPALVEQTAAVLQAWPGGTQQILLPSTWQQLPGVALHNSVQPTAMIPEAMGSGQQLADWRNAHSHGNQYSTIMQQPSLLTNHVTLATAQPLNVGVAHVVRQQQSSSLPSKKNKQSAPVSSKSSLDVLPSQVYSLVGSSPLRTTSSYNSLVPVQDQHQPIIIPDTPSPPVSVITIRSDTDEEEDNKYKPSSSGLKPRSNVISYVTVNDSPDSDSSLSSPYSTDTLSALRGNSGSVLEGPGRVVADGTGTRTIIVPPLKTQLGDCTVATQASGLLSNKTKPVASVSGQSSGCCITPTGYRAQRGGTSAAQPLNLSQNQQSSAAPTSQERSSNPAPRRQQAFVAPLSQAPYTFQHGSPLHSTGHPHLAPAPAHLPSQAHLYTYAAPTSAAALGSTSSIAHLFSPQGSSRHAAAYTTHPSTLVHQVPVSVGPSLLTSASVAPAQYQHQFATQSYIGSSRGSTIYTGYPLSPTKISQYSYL
Description: as §1

HIPK3 = target: T19, HIPK3 (Homo sapiens, UniProt Q9H422)
T19 construct: purchased Millipore, Inc. (KinaseProfiler service)
Description: as §1

JAK2 = target: T20, JAK2 (Homo sapiens, UniProt O60674)
T20 construct: purchased Millipore, Inc. (KinaseProfiler service)
Description: as §1

KIT = target: T21, KIT (Homo sapiens, UniProt P10721)
T21 construct: purchased Millipore, Inc. (KinaseProfiler service)
Description: as §1

Lck = target: T22, Lck (Homo sapiens, UniProt P06239)
T22 construct: purchased Millipore, Inc. (KinaseProfiler service)
Description: as §1

Lyn = target: T23, Lyn (Homo sapiens, UniProt P07948)
T23 construct: purchased Millipore, Inc. (KinaseProfiler service)
Description: as §1

MKK4_m = target: T24, MKK4_m (Mus musculus, UniProt P47809)
T24 construct: purchased Millipore, Inc. (KinaseProfiler service)
T24 sequence (P47809 whole entry): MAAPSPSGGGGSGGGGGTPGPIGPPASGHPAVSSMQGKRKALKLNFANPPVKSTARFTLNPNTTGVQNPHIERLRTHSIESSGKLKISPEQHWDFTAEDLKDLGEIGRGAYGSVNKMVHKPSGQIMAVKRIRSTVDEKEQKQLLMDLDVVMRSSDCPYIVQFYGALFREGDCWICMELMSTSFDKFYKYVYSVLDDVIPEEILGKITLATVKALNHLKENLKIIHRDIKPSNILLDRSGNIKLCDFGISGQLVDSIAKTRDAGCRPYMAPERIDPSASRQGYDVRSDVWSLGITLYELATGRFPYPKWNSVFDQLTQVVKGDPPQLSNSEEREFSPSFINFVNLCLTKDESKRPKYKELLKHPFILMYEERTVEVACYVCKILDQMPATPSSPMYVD
Description: as §1

MST1 = target: T25, MST1 (Homo sapiens, UniProt Q13043)
T25 construct: purchased Millipore, Inc. (KinaseProfiler service)
Description: as §1

NLK = target: T26, NLK (Homo sapiens, UniProt Q9UBE8)
T26 construct: purchased Millipore, Inc. (KinaseProfiler service)
Description: as §1

PAK4 = target: T27, PAK4 (Homo sapiens, UniProt O96013)
T27 construct: purchased Millipore, Inc. (KinaseProfiler service)
Description: as §1

PAK6 = target: T28, PAK6 (Homo sapiens, UniProt Q9NQU5)
T28 construct: purchased Millipore, Inc. (KinaseProfiler service)
Description: as §1

PASK = target: T29, PASK (Homo sapiens, UniProt Q96RG2)
T29 construct: purchased Millipore, Inc. (KinaseProfiler service)
Description: as §1

PTK5 = target: T30, PTK5 (Homo sapiens, UniProt P42685)
T30 construct: purchased Millipore, Inc. (KinaseProfiler service)
Description: as §1

PhKgamma2 = target: T31, PhKgamma2 (Homo sapiens, UniProt P15735)
T31 construct: purchased Millipore, Inc. (KinaseProfiler service)
T31 sequence (P15735 whole entry): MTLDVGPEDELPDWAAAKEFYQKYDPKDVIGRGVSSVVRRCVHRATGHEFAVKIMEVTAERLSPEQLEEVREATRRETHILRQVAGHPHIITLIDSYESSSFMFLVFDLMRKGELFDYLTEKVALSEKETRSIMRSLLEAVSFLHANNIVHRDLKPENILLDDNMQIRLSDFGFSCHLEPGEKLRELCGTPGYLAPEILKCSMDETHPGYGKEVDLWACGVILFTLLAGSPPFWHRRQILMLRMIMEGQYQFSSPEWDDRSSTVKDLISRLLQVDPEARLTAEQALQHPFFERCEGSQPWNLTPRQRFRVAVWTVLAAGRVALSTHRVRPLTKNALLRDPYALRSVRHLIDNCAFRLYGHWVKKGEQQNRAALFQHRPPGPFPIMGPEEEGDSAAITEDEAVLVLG
Description: as §1

Pim-1 = target: T32, Pim-1 (Homo sapiens, UniProt P11309)
T32 construct: purchased Millipore, Inc. (KinaseProfiler service)
Description: as §1

Ret = target: T33, Ret (Homo sapiens, UniProt P07949)
T33 construct: purchased Millipore, Inc. (KinaseProfiler service)
Description: as §1

Rsk4 = target: T34, Rsk4 (Homo sapiens, UniProt Q9UK32)
T34 construct: purchased Millipore, Inc. (KinaseProfiler service)
T34 sequence (Q9UK32 whole entry): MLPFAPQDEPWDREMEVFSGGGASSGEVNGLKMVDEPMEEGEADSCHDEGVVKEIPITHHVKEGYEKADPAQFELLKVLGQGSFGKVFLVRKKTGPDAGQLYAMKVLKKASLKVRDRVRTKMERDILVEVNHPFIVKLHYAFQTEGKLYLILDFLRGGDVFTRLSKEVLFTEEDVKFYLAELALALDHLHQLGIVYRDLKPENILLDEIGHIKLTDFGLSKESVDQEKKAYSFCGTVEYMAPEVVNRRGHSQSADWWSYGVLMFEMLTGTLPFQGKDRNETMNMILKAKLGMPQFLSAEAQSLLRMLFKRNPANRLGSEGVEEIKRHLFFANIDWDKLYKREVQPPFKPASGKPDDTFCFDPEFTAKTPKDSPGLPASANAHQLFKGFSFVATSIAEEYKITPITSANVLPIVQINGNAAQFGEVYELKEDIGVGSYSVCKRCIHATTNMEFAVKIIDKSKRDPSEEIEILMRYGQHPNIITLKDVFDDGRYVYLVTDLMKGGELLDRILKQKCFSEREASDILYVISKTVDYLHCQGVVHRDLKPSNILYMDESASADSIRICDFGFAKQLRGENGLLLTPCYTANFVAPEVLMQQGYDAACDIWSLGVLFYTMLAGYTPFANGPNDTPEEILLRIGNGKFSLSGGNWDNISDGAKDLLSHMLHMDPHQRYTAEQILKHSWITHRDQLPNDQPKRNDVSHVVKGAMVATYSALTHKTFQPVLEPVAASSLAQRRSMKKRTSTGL
Description: as §1

SGK3 = target: T35, SGK3 (Homo sapiens, UniProt Q96BR1)
T35 construct: purchased Millipore, Inc. (KinaseProfiler service)
Description: as §1

SIK = target: T36, SIK (Homo sapiens, UniProt P57059)
T36 construct: purchased Millipore, Inc. (KinaseProfiler service)
Description: as §1

TAO1 = target: T37, TAO1 (Homo sapiens, UniProt Q7L7X3)
T37 construct: purchased Millipore, Inc. (KinaseProfiler service)
Description: as §1

TAO2 = target: T38, TAO2 (Homo sapiens, UniProt Q9UL54)
T38 construct: purchased Millipore, Inc. (KinaseProfiler service)
Description: as §1

TrkB = target: T39, TrkB (Homo sapiens, UniProt Q16620)
T39 construct: purchased Millipore, Inc. (KinaseProfiler service)
T39 sequence (Q16620 32-822): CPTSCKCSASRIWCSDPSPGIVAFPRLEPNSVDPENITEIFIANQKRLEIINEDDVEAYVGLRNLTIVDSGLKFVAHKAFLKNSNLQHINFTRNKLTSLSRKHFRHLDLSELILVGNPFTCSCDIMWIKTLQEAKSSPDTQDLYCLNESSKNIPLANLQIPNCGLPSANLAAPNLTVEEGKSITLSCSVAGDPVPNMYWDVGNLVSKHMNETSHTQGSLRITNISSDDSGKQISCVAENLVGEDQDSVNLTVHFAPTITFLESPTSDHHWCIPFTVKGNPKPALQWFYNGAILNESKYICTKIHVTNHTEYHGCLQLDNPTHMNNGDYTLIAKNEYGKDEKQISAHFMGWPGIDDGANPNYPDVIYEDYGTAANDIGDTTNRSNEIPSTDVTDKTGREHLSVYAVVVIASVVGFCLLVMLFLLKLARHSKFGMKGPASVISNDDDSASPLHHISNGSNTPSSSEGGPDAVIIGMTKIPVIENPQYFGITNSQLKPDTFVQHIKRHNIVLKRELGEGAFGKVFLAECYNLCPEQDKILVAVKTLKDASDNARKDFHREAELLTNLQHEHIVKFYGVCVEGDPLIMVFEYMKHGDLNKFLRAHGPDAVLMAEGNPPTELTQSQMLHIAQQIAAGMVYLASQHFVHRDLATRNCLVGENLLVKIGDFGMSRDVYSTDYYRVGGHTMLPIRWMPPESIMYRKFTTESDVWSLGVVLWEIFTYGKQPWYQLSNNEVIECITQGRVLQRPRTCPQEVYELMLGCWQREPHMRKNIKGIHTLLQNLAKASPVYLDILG
Description: as §1

Txk = target: T40, Txk (Homo sapiens, UniProt P42681)
T40 construct: purchased Millipore, Inc. (KinaseProfiler service)
Description: as §1

WNK3 = target: T41, WNK3 (Homo sapiens, UniProt Q9BYP7)
T41 construct: purchased Millipore, Inc. (KinaseProfiler service)
Description: as §1

T1 sequence (O14965 whole entry): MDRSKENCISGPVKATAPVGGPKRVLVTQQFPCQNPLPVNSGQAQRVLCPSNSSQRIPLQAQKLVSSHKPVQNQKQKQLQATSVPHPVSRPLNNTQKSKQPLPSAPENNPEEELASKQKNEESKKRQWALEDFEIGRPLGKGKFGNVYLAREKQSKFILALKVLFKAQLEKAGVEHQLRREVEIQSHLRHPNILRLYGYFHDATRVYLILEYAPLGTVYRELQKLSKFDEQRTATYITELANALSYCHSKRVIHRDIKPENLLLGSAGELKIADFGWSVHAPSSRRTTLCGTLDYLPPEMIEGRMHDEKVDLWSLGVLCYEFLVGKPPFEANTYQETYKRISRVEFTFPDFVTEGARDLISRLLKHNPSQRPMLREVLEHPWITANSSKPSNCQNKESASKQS

COCCN1C[C@@H](NC(=O)Nc2sc(C(C)C)nc2-c2ccccc2)[C@H](c2ccccc2)C1 [Example 48, 1-(2-isopropyl-4-phenylthiazol-5-yl)-3-((3S,4R)-1-(2-methoxyethyl)-4-phenylpyrrolidin-3-yl)urea]
Avg POC (AURKA): 133% of control | Avg POC (BLK_m): 107% of control | Avg POC (BrSK1): 123.5% of control | Avg POC (CDK9/cyclinT1): 111.5% of control | Avg POC (CK1_y): 106% of control | Avg POC (CK1delta): 111.5% of control | Avg POC (CK1gamma2): 94.5% of control | Avg POC (CK2alpha2): 113% of control | Avg POC (CLK2): 116% of control | Avg POC (DAPK1): 114.5% of control | Avg POC (DDR2): 101.5% of control | Avg POC (ERK2): 101% of control | Avg POC (EphA1): 113.5% of control | Avg POC (EphA5): 107% of control | Avg POC (FGFR4): 102.5% of control | Avg POC (Fer): 91.5% of control | Avg POC (GRK6): 101% of control | Avg POC (GSK3alpha): 120.5% of control | Avg POC (HIPK1): 119.5% of control | Avg POC (HIPK3): 82% of control | Avg POC (JAK2): 123.5% of control | Avg POC (KIT): 100% of control | Avg POC (Lck): 102% of control | Avg POC (Lyn): 108.5% of control | Avg POC (MKK4_m): 122% of control | Avg POC (MST1): 93.5% of control | Avg POC (NLK): 108.5% of control | Avg POC (PAK4): 134.5% of control | Avg POC (PAK6): 94% of control | Avg POC (PASK): 103% of control | Avg POC (PTK5): 107.5% of control | Avg POC (PhKgamma2): 110% of control | Avg POC (Pim-1): 134% of control | Avg POC (Ret): 125.5% of control | Avg POC (Rsk4): 116% of control | Avg POC (SGK3): 82% of control | Avg POC (SIK): 111% of control | Avg POC (TAO1): 101% of control | Avg POC (TAO2): 100.5% of control | Avg POC (TrkB): 9% of control | Avg POC (Txk): 85.5% of control | Avg POC (WNK3): 99.5% of control
